Reference: ChEMBL document CHEMBL1201862, “PubChem BioAssay data set” (2004)
Calls of active or inactive are those of the source.

Columns and labels:
fMet-Leu-Phe receptor = target: T1, fMet-Leu-Phe receptor (Homo sapiens, UniProt P21462); assay: FPR ligands, dose response (AID 519); assay type: functional
T1 sequence (P21462 whole entry): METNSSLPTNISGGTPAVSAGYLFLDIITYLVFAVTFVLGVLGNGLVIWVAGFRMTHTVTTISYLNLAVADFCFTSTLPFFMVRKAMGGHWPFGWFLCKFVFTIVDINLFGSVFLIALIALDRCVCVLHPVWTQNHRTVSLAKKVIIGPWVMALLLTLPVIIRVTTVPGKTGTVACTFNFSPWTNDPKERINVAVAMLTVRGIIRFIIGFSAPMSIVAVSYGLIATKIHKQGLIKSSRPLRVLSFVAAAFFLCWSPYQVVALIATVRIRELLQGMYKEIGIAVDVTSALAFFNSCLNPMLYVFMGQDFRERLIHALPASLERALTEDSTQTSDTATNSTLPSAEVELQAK

Fatty acid synthase [1] = target: T2, Fatty acid synthase (Homo sapiens, UniProt P49327); assay: FAS thioesterase domain inhibitors, dose response, biochemical, endpoint fluorescence intensity, uHTS hits (AID 624327); assay type: functional;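 note: fluorescence from hydrolysis of an O-methyl fluorescein acyl ester substrate by the enzyme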
T2 sequence (P49327 whole entry, the tested form may be a part): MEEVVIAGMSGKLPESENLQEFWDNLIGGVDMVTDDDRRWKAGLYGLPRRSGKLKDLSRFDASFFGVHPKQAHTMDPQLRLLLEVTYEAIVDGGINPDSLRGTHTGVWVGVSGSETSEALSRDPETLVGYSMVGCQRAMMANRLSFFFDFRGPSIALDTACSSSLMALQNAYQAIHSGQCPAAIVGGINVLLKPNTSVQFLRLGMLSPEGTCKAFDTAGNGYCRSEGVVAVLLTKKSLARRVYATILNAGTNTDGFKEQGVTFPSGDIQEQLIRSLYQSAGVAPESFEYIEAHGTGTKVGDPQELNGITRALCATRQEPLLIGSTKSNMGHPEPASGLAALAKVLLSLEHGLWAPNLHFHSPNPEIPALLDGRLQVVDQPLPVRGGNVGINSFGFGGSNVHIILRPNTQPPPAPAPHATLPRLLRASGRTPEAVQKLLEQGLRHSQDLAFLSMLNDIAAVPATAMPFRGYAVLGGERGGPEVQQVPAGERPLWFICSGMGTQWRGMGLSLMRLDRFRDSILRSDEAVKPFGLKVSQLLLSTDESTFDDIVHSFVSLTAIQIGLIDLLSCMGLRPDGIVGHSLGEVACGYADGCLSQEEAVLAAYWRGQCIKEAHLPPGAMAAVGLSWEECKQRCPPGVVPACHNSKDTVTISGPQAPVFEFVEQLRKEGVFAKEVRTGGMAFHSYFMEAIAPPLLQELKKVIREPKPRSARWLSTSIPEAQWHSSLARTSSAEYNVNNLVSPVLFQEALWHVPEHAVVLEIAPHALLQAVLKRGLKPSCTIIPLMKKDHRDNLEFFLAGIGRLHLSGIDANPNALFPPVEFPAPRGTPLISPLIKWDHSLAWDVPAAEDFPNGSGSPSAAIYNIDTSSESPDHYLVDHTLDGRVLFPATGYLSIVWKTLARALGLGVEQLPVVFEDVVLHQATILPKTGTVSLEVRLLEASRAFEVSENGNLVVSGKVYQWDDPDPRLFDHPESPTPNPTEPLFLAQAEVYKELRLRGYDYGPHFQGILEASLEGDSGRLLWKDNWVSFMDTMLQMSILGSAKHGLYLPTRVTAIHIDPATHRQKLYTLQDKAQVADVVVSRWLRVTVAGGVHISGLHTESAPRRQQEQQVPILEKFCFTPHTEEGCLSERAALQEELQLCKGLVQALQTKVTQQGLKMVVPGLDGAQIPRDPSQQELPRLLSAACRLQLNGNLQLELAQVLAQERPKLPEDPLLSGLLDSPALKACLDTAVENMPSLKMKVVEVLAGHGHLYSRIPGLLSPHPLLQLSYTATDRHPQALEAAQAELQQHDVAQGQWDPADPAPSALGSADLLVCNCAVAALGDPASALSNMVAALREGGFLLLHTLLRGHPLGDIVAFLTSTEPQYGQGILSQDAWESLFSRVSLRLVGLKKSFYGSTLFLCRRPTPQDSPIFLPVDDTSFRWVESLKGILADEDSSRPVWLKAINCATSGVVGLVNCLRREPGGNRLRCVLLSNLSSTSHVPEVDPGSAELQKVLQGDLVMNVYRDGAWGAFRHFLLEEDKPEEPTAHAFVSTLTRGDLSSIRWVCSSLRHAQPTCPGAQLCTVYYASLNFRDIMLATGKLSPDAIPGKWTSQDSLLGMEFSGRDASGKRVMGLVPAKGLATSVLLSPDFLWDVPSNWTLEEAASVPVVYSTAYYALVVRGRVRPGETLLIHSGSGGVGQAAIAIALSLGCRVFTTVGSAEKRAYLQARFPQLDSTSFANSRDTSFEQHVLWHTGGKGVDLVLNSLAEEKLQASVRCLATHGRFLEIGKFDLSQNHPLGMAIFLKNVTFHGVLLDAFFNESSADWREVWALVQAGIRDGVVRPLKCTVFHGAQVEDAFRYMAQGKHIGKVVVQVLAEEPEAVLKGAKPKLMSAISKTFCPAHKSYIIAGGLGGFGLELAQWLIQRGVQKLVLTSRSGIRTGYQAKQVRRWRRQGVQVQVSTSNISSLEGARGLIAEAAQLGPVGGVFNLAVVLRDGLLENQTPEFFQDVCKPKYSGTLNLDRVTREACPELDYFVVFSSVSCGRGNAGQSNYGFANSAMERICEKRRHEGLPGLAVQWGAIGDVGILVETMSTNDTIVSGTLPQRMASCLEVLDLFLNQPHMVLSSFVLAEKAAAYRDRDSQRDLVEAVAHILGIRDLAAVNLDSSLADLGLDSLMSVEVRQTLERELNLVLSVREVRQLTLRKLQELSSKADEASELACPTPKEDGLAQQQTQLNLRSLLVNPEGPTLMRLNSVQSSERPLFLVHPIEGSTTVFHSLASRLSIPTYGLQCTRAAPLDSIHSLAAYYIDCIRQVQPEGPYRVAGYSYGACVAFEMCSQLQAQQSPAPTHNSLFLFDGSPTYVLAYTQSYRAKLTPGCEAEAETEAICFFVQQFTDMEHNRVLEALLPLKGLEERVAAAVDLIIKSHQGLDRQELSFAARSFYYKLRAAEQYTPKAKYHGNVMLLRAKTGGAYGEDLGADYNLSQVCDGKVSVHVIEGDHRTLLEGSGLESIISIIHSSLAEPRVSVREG

Fatty acid synthase [2] = target: T2, Fatty acid synthase; assay: FAS thioesterase domain inhibitors, dose response, biochemical, kinetic fluorescence intensity (AID 624326); assay type: functional;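 note: rate of fluorescence rise from hydrolysis of a fluorogenic O-methyl fluorescein ester substrate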
[3] = target: T3, RNA-binding protein pos-1 (Caenorhabditis elegans, UniProt G5EF15); assay: inhibitors of POS-1/mex-3 RNA binding, dose response, biochemical, fluorescence polarization (AID 1964);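 note: purified POS-1 fused to maltose binding protein made in E. coli; potency of compounds blocking POS-1 binding to fluorescent RNA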
T3 sequence (G5EF15 whole entry): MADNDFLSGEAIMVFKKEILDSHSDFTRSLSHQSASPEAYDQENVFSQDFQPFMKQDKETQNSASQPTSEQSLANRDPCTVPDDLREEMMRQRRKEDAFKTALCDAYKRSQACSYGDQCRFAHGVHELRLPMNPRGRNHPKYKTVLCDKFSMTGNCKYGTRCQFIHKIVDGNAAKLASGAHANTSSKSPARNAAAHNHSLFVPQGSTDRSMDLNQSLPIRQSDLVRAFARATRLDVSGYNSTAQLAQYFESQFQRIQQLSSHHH

Vero = assay: cells; assay type: functional; details: Chlorocebus sabaeus
[4] = target: T4, Zinc finger protein mex-5 (Caenorhabditis elegans, UniProt Q9XUB2); assay: MEX-5/TCR-2 RNA interaction inhibitors, dose response, biochemical, C. elegans, fluorescence polarization (AID 1960)
T4 sequence (Q9XUB2 whole entry): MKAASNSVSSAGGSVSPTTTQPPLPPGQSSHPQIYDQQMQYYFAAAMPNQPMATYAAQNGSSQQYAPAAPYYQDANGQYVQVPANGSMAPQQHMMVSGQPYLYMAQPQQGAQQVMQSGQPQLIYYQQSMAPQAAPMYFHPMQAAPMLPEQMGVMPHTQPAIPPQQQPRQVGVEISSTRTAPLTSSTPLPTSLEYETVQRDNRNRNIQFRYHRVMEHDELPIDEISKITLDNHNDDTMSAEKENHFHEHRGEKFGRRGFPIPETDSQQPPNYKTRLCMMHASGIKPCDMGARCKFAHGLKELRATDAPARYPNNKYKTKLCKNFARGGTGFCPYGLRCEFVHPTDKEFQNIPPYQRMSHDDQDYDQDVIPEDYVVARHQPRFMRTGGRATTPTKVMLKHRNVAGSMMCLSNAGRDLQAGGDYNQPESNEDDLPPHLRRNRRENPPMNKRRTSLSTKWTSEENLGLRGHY

BJ [5] = assay: cytotoxicity toward BJ-TERT fibroblasts, dose response, cell-based, RAS-independent, luminescence (AID 1933); assay type: functional; details: Homo sapiens
BJ [6] = assay: cytotoxicity toward BJ-TERT-LT-ST fibroblasts, dose response, cell-based, RAS-independent, luminescence (AID 1935); assay type: functional; details: Homo sapiens;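 note: BJ fibroblasts immortalized with TERT plus LT and ST oncogenes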
[7] = cytotoxicity toward DRD oncogenic fibroblasts, dose response, cell-based, non-viral oncogenic, luminescence (AID 1934); assay type: functional; details: Homo sapiens
BJ [8] = assay: cells; assay type: functional, cell-based; details: Homo sapiens
BJ [9] = assay: cytotoxicity toward Ras-transformed BJeLR fibroblasts, dose response, cell-based, alamar blue fluorescence, cherrypicked samples (AID 2631); assay type: functional; details: Homo sapiens;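 note: confirmatory dose-response assay in RAS-dependent BJ fibroblasts engineered with TERT, LT and ST, with cytotoxicity read by fluorescence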
Caspase-3 = target: T5, Caspase-3 (Homo sapiens, UniProt P42574); assay type: functional;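 note: Dose-response selectivity test against caspase-3 for candidate inhibitors of sentrin-specific proteases (SENPs)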
T5 sequence (P42574 whole entry): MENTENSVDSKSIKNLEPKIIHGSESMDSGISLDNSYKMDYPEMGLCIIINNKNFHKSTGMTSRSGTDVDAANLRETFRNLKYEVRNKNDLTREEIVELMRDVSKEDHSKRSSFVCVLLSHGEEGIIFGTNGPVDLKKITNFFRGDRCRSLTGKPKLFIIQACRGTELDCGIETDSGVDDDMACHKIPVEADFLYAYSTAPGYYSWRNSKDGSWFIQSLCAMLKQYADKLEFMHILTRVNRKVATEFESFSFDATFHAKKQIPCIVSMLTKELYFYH

[10] = target: T6, Sentrin-specific protease 7 (Homo sapiens, UniProt Q9BQF6); assay type: functional;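 note: Luminescence-based dose-response confirmation of ultra-high-throughput screening hits, measuring inhibition of SENP7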
T6 sequence (Q9BQF6 whole entry): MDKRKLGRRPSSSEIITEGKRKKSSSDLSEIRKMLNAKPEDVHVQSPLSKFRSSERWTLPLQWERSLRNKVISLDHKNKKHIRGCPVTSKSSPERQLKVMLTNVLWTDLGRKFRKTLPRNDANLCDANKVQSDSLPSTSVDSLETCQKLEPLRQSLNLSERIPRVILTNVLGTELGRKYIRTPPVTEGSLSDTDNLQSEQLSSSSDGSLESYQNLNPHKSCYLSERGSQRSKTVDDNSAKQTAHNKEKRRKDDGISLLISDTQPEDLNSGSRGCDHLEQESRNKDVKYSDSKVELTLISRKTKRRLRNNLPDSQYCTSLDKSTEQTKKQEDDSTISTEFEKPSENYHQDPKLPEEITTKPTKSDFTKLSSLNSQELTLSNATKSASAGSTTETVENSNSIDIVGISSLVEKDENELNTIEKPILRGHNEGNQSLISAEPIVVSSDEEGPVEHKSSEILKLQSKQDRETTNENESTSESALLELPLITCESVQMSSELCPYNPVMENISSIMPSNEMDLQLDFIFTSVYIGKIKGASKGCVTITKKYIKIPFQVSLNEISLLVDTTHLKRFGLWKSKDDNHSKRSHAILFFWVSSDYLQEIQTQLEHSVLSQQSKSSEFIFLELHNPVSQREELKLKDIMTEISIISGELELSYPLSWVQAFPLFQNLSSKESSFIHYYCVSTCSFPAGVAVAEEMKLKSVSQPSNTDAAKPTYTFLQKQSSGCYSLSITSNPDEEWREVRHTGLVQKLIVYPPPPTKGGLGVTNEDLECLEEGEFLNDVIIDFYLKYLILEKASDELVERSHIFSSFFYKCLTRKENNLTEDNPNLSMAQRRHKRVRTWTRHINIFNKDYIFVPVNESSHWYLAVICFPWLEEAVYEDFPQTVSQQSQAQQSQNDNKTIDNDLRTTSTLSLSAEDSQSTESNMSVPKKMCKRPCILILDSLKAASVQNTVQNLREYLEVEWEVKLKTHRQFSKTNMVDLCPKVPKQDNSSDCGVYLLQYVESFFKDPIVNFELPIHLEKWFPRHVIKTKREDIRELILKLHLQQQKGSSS

[11] = target: T7, Sentrin-specific protease 8 (Homo sapiens, UniProt Q96LD8); assay type: functional;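 note: luminescence read-out of SENP8 inhibition, dose-response confirmation following an ultra-high-throughput screen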
T7 sequence (Q96LD8 whole entry): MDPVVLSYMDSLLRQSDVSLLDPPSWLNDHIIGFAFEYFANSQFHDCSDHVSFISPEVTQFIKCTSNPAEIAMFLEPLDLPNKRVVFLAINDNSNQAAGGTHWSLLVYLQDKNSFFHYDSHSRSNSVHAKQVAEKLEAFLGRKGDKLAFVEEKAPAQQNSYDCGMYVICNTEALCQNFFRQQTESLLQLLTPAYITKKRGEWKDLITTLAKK

[12] = target: T8, Sentrin-specific protease 6 (Homo sapiens, UniProt Q9GZR1); assay type: functional;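 note: Luminescence-based dose-response confirmatory assay of SENP6 inhibition, following up an ultra-high-throughput screen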
T8 sequence (Q9GZR1 whole entry): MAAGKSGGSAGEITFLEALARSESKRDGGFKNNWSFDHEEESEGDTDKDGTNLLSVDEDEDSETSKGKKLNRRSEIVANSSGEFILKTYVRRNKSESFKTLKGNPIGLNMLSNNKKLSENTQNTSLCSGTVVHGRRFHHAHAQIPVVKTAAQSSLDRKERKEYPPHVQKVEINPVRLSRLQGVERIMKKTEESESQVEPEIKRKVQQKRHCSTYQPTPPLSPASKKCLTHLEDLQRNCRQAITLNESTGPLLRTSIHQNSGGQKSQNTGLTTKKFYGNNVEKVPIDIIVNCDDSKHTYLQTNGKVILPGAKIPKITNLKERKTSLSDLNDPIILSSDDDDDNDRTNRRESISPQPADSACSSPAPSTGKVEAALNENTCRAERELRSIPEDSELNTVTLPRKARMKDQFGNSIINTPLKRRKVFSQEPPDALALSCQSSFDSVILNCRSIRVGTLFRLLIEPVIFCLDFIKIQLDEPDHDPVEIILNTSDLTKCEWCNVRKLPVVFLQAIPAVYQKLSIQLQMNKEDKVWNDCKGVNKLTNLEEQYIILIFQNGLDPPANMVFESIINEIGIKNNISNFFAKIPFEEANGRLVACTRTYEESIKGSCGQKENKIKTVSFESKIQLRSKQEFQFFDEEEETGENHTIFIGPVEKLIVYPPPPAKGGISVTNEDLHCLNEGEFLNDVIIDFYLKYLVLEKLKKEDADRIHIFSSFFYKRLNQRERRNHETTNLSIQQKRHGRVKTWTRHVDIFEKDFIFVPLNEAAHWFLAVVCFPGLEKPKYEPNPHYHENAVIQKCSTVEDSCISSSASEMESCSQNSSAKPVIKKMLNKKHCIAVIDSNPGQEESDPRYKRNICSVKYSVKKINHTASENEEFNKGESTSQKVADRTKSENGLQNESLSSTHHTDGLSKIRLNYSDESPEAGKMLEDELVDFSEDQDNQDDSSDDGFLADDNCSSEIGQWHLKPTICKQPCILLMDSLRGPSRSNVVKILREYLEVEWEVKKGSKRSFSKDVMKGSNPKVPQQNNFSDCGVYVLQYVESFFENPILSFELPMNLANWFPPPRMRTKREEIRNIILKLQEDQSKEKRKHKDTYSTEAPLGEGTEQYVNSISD

[13] = target: T9, DNA repair protein RAD52 homolog (Homo sapiens, UniProt P43351); assay type: functional, biochemical
T9 sequence (P43351 whole entry): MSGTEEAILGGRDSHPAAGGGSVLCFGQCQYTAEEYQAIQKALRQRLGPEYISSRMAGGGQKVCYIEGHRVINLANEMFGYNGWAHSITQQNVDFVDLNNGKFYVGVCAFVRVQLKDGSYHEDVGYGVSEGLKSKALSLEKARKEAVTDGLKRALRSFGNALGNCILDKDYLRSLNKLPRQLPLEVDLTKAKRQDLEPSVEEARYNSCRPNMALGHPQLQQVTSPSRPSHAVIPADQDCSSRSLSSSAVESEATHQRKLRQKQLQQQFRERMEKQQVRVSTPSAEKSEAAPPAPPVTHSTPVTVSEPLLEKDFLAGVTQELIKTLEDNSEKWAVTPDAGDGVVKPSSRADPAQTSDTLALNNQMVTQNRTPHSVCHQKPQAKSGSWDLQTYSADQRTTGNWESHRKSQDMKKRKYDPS

[14] = inhibitors of intracellular T. cruzi replication, confirmation, NIH3T3 host cells, beta-gal luminescence (AID 2044); assay type: functional, cell-based;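 note: intracellular parasites grown in NIH/3T3 mouse fibroblasts as host cells; luminescent beta-galactosidase reporter signal from transgenic T. cruzi replicating inside host cells; inhibitors lower the luminescence signal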
[15] = cytotoxicity toward NIH3T3 fibroblasts, dose response, counter-screen, cell-based, ATP luminescence, mouse fibroblasts (AID 2010); assay type: functional;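 note: cells exposed to compound for about 90 hours before reading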

COc1ccccc1-n1c(CNC(=O)c2ccco2)nnc1SCC(=O)Nc1ccc(F)cc1
Ki (fMet-Leu-Phe receptor): 63.3 µM (inactive)

CCCCn1c(NC(C)=O)c(C#N)c2nc3ccccc3nc21
Ki (fMet-Leu-Phe receptor): 45.7 µM (inactive)

COc1ccc([N+](=O)[O-])cc1NC(=O)CCC(=O)c1cccs1
IC50 (Fatty acid synthase [1]): 9.16 µM (active)
IC50 (Fatty acid synthase [2]): 9.62 µM (active)

CC1CCN(C(=O)CCN2C(=O)/C(=C/c3cccs3)SC2=S)CC1
EC50 [3]: > 300 µM (not active)
CC50 (Vero): 17.3 µM (active)
EC50 [4]: > 300 µM (not active)

Brc1nc(-c2ccccc2)nc(-c2ccccc2)c1Br
EC50 (BJ [5]): 8.57 µM (inconclusive)
EC50 (BJ [6]): 7.93 µM (inconclusive)
EC50 [7]: 10.2 µM (active)
EC50 (BJ [8]): 14 µM (active)
EC50 (BJ [9]): 4.95 µM (active)

COc1ccc(-c2nnc(SCc3ccccc3F)o2)cc1
IC50 (Caspase-3): 16.1 µM (active)
IC50 [10]: 4.23 µM (active)
IC50 [11]: 12.2 µM (active)
IC50 [12]: 12 µM (active)

O=C(Nc1cccc(F)c1)c1ccc(-c2ccccc2Cl)o1
IC50 (Caspase-3): 47 µM (active)
IC50 [10]: 7.07 µM (active)
IC50 [11]: 53.7 µM (active)
IC50 [12]: 42 µM (active)

Fc1ccc(-c2nnc3ccc(N4CCCC4)nn23)cc1
Ki (fMet-Leu-Phe receptor): > 66.7 µM (inactive)

c1ccc(Nc2nnc(-c3cccc4ccccc34)o2)cc1
IC50 (Caspase-3): > 100 µM (inactive)
IC50 [10]: > 100 µM (inactive)
IC50 [11]: > 100 µM (inactive)
IC50 [12]: > 100 µM (inactive)

Cc1cc2oc(C(=O)NC3CCS(=O)(=O)C3)c(C)c2cc1C (stereo not drawn)
Ki (fMet-Leu-Phe receptor): > 66.7 µM (inactive)

O=[N+]([O-])c1ccc(S(=O)(=O)NN=Cc2ccc3c(c2)OCO3)cc1
IC50 (Fatty acid synthase [1]): 5.4 µM (active)
IC50 (Fatty acid synthase [2]): 5.8 µM (active)

Cc1cc(N2CCCC2)nc2ccc(NC(S)=NCCCN3CCC(C)CC3)cc12
AC50 [13]: 2.27 µM (active)
CC50 (Vero): > 25 µM (active)
EC50 [14]: 2.03 µM (active)
EC50 [15]: 14.2 µM (active)

CCOC(=O)CC(NC(=O)c1cc2ccccc2oc1=O)c1cccc([N+](=O)[O-])c1 (stereo not drawn)
IC50 (Fatty acid synthase [1]): 16.7 µM (active)
IC50 (Fatty acid synthase [2]): 15.5 µM (active)

O=C(/C=C/c1ccc(F)cc1)NNC(=O)CCN1CCN(Cc2ccccc2)CC1
EC50 (BJ [5]): 19.1 µM (active)
EC50 (BJ [6]): 2.15 µM (active)
EC50 [7]: 2.92 µM (active)
EC50 (BJ [8]): 3.53 µM (active)
EC50 (BJ [9]): > 133 µM (inactive)

COC(=O)c1ccc(CSc2nc(C(F)F)cc(C)c2C#N)o1
IC50 (Fatty acid synthase [1]): 17.2 µM (active)
IC50 (Fatty acid synthase [2]): 18.6 µM (active)

CC1=C(C(=O)OCC(Br)(Br)Br)C(c2cccc([N+](=O)[O-])c2)NC(=O)N1CCCC(=O)O (stereo not drawn)
IC50 (Fatty acid synthase [1]): 7.69 µM (active)
IC50 (Fatty acid synthase [2]): 5.05 µM (active)
